By IC50 is commonly meant the concentration that gives 50% inhibition. High values mean lower potency, low ones higher potency. In general, MIC refers to the lowest concentration that inhibits growth of the organism. A higher MIC goes with a less susceptible organism.

Common to all, as to format: functional
One assay has as its system Cryptococcus neoformans. Put plainly: Antifungal activity against Cryptococcus neoformans after 96 hrs by broth micro-dilution method. In general terms: Broth dilution looks for growth in wells or tubes with falling amounts of substance.
Another assay has as its system Bacillus subtilis. The assay can be described thus: Antibacterial activity against Bacillus subtilis after 48 hrs by broth micro-dilution method.
The subject of a further assay is Staphylococcus aureus. Put plainly: Antibacterial activity against Staphylococcus aureus after 48 hrs by broth micro-dilution method.
In a further assay the test system is Escherichia coli. Put plainly: Antibacterial activity against Escherichia coli after 48 hrs by broth micro-dilution method.
The test system of assay [1] is Trichophyton mentagrophytes. The assay can be described thus: Antifungal activity against Trichophyton mentagrophytes after 96 hrs by broth micro-dilution method.
Another assay relates to Aspergillus niger. The assay can be described thus: Antifungal activity against Aspergillus niger after 96 hrs by broth micro-dilution method.
A further assay relates to Candida albicans. Put plainly: Antifungal activity against Candida albicans after 48 hrs by broth micro-dilution method.
In another assay the test system is Micrococcus luteus. Put plainly: Antibacterial activity against Micrococcus luteus after 48 hrs by broth micro-dilution method.

Converted amounts (≈) assume the structure as drawn. *1 amine or outer side, *2 acyl side, *3 side chain or, on linkers, in order; H or OH if unused. Where a SMILES comes first, the peptide text is derived from it. Bridges are numbered along the chain shown (N, C = ends). [ ]: non-standard residue; d: D form. The star is where a group is joined. hTyr(3S-OH,4S-OH,3'-OSO3H) = N[C@H](C(=O)O)[C@H](O)[C@@H](O)c1ccc(O)c(OS(=O)(=O)O)c1; Orn(4R-OH,5R-OH) = O=C([C@H](C[C@@H](O)[C@@H](O)N[*:3])N[*:1])[*:2]; Pro(3S-OH,4S-Me) = C[C@H]1CN[C@H](C(=O)O)[C@H]1O; X1 = CCCCCOc1ccc(-c2cc(-c3ccc(C(=O)*)cc3)no2)cc1; Gln(3R-OH) = NC(=O)C[C@@H](O)[C@H](N)C(=O)O; Hyp = O=C(O)[C@@H]1C[C@@H](O)CN1

As to `Cc1cccc(O)c1C(=O)O[C@@H]1[C@@H](O)[C@H](O)[C@@H](NC(=O)c2cccc(O)c2)C[C@H]1OC(N)=O`, the IC50 in the assay with Cryptococcus neoformans is 32 µg/mL (≈ 69.5 µM); in assay [1], > 32 µg/mL; in the assay on Aspergillus niger it was > 32 µg/mL; in the assay with Candida albicans, > 32 µg/mL. In addition, the MIC against Bacillus subtilis, against Staphylococcus aureus, against Escherichia coli and with Micrococcus luteus was > 32 µg/mL throughout.
On to `CN[C@H]1C[C@@H](N)[C@H](O)[C@@H](O[C@@H]2O[C@H](CO)[C@H](O)[C@@H]3O[C@@]4(O[C@H]23)O[C@H]([C@@H](N)CO)[C@H](O)[C@H](O)[C@H]4O)[C@@H]1O`, for which the IC50 is 3.9 µg/mL (≈ 7.39 µM) in the assay on Cryptococcus neoformans, 1 µg/mL (≈ 1.9 µM) in assay [1], 1 µg/mL (≈ 1.9 µM) with Aspergillus niger and 3.9 µg/mL (≈ 7.39 µM) in the assay on Candida albicans. The MIC with Bacillus subtilis worked out at 2 µg/mL (≈ 3.79 µM); against Staphylococcus aureus it was 0.5 µg/mL (≈ 0.948 µM); against Escherichia coli, 2 µg/mL (≈ 3.79 µM); with Micrococcus luteus, 1 µg/mL (≈ 1.9 µM).
Consider `Cc1cccc(O)c1C(=O)O[C@H]1[C@H](O)[C@@H](O)[C@H](OC(N)=O)C[C@@H]1NC(=O)c1cccc(O)c1`, for which the IC50 is 16 µg/mL (≈ 34.7 µM) in the assay on Cryptococcus neoformans, > 32 µg/mL in assay [1], > 32 µg/mL in the assay with Aspergillus niger and > 32 µg/mL in the assay with Candida albicans. For the same compound, the MIC with Bacillus subtilis, in the assay with Staphylococcus aureus, against Escherichia coli and with Micrococcus luteus was > 32 µg/mL in each case.
`C[C@@H]1[C@H](O)[C@@H](C)/C=C/C=C/C=C/C=C/C=C/C=C/C=C/[C@H](O[C@@H]2O[C@H](C)[C@@H](O)[C@H](N)[C@@H]2O)C[C@@H]2O[C@](O)(C[C@@H](O)C[C@@H](O)[C@H](O)CC[C@@H](O)C[C@@H](O)CC(=O)O[C@H]1C)C[C@H](O)[C@H]2C(=O)O` [AMPHOTERICIN B]: the IC50 with Cryptococcus neoformans was < 0.05 µg/mL; in assay [1], 3.9 µg/mL (≈ 4.22 µM); in the assay with Aspergillus niger, 1.8 µg/mL (≈ 1.95 µM); with Candida albicans, 1 µg/mL (≈ 1.08 µM). Also, the MIC against Bacillus subtilis, in the assay on Staphylococcus aureus, against Escherichia coli and against Micrococcus luteus was > 31.2 µg/mL each time.
`NC[C@H]1O[C@H](O[C@H]2[C@H](O)[C@@H](O[C@H]3O[C@H](CO)[C@@H](O)[C@H](N)[C@H]3O)[C@H](N)C[C@@H]2N)[C@H](O)[C@@H](O)[C@@H]1O` [KANAMYCIN]: the IC50 was 7.8 µg/mL (≈ 16.1 µM) in the assay on Cryptococcus neoformans, 7.8 µg/mL (≈ 16.1 µM) in assay [1], 31.3 µg/mL (≈ 64.6 µM) in the assay with Aspergillus niger and > 62.5 µg/mL in the assay with Candida albicans. The MIC is < 0.1 µg/mL against Bacillus subtilis, < 0.1 µg/mL against Staphylococcus aureus, < 0.1 µg/mL with Escherichia coli and 1 µg/mL (≈ 2.06 µM) with Micrococcus luteus.
For the compound `CCCCCOc1ccc(-c2cc(-c3ccc(C(=O)N[C@H]4C[C@@H](O)[C@@H](O)NC(=O)[C@@H]5[C@@H](O)[C@@H](C)CN5C(=O)[C@H]([C@H](O)CC(N)=O)NC(=O)[C@H]([C@H](O)[C@@H](O)c5ccc(O)c(OS(=O)(=O)O)c5)NC(=O)[C@@H]5C[C@@H](O)CN5C(=O)[C@H]([C@@H](C)O)NC4=O)cc3)no2)cc1` [MICAFUNGIN] (X1-[Orn(4R-OH,5R-OH)]T[Hyp][hTyr(3S-OH,4S-OH,3'-OSO3H)][Gln(3R-OH)][Pro(3S-OH,4S-Me)]; lactam 1-C), the half-maximal inhibitory concentration (IC50) (in the assay with Cryptococcus neoformans; in assay [1]; in the assay on Aspergillus niger; with Candida albicans) was < 0.1 µg/mL each time. The MIC against Bacillus subtilis is 0.5 µg/mL (≈ 0.394 µM); against Staphylococcus aureus, 0.5 µg/mL (≈ 0.394 µM); in the assay with Escherichia coli, > 62.5 µg/mL; against Micrococcus luteus, 7.8 µg/mL (≈ 6.14 µM).

Values taken from ChEMBL document CHEMBL4038264, “Nabscessins A and B, Aminocyclitol Derivatives from Nocardia abscessus IFM 10029T” (J Nat Prod, 2017).
